# Test system: Glial cells (DBTRG-05MG; CRL-2020)
# Test: Lactate dehydrogenase (LDH) cell death assay: percentage cell survival of glia cells with or without H2O2 exposure
# Format: cell-based, human
# Conditions: for Percentage Cell Survival (% ± SD), H202 Given Last (30 min before H202 given/pre-treatment) / Percentage Cell Survival (% ± SD), H202 (added 30 min after): H2O2 0.25M about 30 min after treatment; for Percentage Cell Survival (% ± SD), H202 Given 1st (30 min after H202 Given, mimics acute injury) / Percentage Cell Survival (% ± SD), H202 (added 30 min before): H2O2 0.25M about 30 min before treatment; for Percentage Cell Survival (% ± SD), Control: control (PBS) instead of H2O2; for Percentage Cell Survival (% ± SD), H202 given (30 min after treatment with Vitamin D) / Percentage Cell Survival (% ± SD), H202 Given (30 min before treatment with Vitamin D) / Percentage Cell Survival (% ± SD), Control (PBS): Table 3; for Percentage Cell Survival (% ± SD), H202 given (30 min after treatment with Vitamin D): H2O2 0.25M 30 min after treatment; for Percentage Cell Survival (% ± SD), H202 Given (30 min before treatment with Vitamin D): H2O2 0.25M 30 min before treatment; for Percentage Cell Survival (% ± SD), Control (PBS): no H2O2
# Experimental: Glial cells were purchased from ATCC (DBTRG-05MG; CRL-2020) and were derived from the brain of a […] with glioblastoma. […] Glial cells were subcultured at a ratio of about 1:4 every 2 to 3 days. Cell death was measured by the CytoTox 96 Non-Radioactive Cytotoxicity Assay according to the manufacturer's instructions (Promega, Madison, Wis.). Culture medium (500 μl) was recovered from and incubated for about 30 min in the dark with a buffer containing NAD+, lactate, and tetrazolium. Lactate Dehydrogenase (LDH) converts lactate to pyruvate, generating NADH which reduces tetrazolium (yellow) to formazan (red), which is detected by […] (490 nm). LDH release, a marker for cell death, was expressed as a percentage of the LDH in the medium over the total LDH. Data was analyzed using a two-tailed t-test after applying ANOVA to the data. Differences were considered significant when p<0.01. Glia cells (10^6 cells) were plated in triplicates in 6-well plates. […] Percentage cell survival was calculated about 24 hours later using LDH assay. […] Glia cells (10^6 cells) were plated in triplicates in 6-well plates. […] Percentage cell survival was calculated about 24 hours later using LDH assay. […] Glia cells (10^6 cells) were plated in triplicates in 6-well plates. […] Percentage cell survival was calculated about 24 hours later using LDH assay.
# [1] = Table 1, survival about 24 h later, 3 experiments
# [2] = Table 2, Vitamin D3 (1/5), Hsp72 (1/5), Glutathione 200 mg/ml, 24 h, 4 experiments
compound,measurement,setting,value
"C=C1CC[C@H](O)C/C1=C/C=C1\CCC[C@]2(C)[C@@H]([C@H](C)CCCC(C)C)CC[C@@H]12 [Vitamin D3, Cholecalciferol]","Percentage Cell Survival (% ± SD), H202 Given Last (30 min before H202 given/pre-treatment)",[1],28.56 ± 8.9 %
same,"Percentage Cell Survival (% ± SD), H202 Given 1st (30 min after H202 Given, mimics acute injury)",[1],15.27 ± 7.4 %
same,"Percentage Cell Survival (% ± SD), Control",[1],94.64 ± 4.6%
same,"Percentage Cell Survival (% ± SD), H202 (added 30 min after)",[2],12.68 ± 3.5 %
same,"Percentage Cell Survival (% ± SD), H202 (added 30 min before)",[2],10.36 ± 2.3 %
same,"Percentage Cell Survival (% ± SD), Control",[2],97.28 ± 4.3%
same,"Percentage Cell Survival (% ± SD), H202 given (30 min after treatment with Vitamin D)","Vitamin D3 5 ng/m1, 24 h",9.75 ± 3.6%
same,"Percentage Cell Survival (% ± SD), H202 Given (30 min before treatment with Vitamin D)","Vitamin D3 5 ng/m1, 24 h",6.22 ± 2.8%
same,"Percentage Cell Survival (% ± SD), Control (PBS)","Vitamin D3 5 ng/m1, 24 h",96.89 ± 4.5%
same,"Percentage Cell Survival (% ± SD), H202 given (30 min after treatment with Vitamin D)","Vitamin D3 25 ng/m1, 24 h",13.09 ± 2.9 %
same,"Percentage Cell Survival (% ± SD), H202 Given (30 min before treatment with Vitamin D)","Vitamin D3 25 ng/m1, 24 h",10.18 ± 2.2 %
same,"Percentage Cell Survival (% ± SD), Control (PBS)","Vitamin D3 25 ng/m1, 24 h",98.56 ± 7.9%
same,"Percentage Cell Survival (% ± SD), H202 given (30 min after treatment with Vitamin D)","Vitamin D3 50 ng/m1, 24 h",28.56 ± 3.9 %
same,"Percentage Cell Survival (% ± SD), H202 Given (30 min before treatment with Vitamin D)","Vitamin D3 50 ng/m1, 24 h",15.27 ± 4.4 %
same,"Percentage Cell Survival (% ± SD), Control (PBS)","Vitamin D3 50 ng/m1, 24 h",91.18 ± 6.8%
same,"Percentage Cell Survival (% ± SD), H202 Given (30 min before treatment with Vitamin D)","Vitamin D3 75 ng/m1, 24 h",22.94 ± 3.8 %
same,"Percentage Cell Survival (% ± SD), Control (PBS)","Vitamin D3 75 ng/m1, 24 h",95.82 ± 6.2%
same,"Percentage Cell Survival (% ± SD), H202 given (30 min after treatment with Vitamin D)","Vitamin D3 100 ng/m1, 24 h",60.11 ± 7.2 %
same,"Percentage Cell Survival (% ± SD), H202 Given (30 min before treatment with Vitamin D)","Vitamin D3 100 ng/m1, 24 h",28.99 ± 6.9 %
same,"Percentage Cell Survival (% ± SD), Control (PBS)","Vitamin D3 100 ng/m1, 24 h",97.41 ± 8.4%
Hsp72: Endotoxin-free recombinant Hsp72 produced using the baculovirus expression vector system and expressed in insect cells,"Percentage Cell Survival (% ± SD), H202 Given Last (30 min before H202 given/pre-treatment)",[1],48.54 ± 6.3 %
same,"Percentage Cell Survival (% ± SD), H202 Given 1st (30 min after H202 Given, mimics acute injury)",[1],31.85 ± 9.2 %
same,"Percentage Cell Survival (% ± SD), Control",[1],96.88 ± 3.8%
same,"Percentage Cell Survival (% ± SD), H202 (added 30 min after)",[2],32.68 ± 7.5 %
same,"Percentage Cell Survival (% ± SD), H202 (added 30 min before)",[2],21.57 ± 5.4 %
same,"Percentage Cell Survival (% ± SD), Control",[2],95.48 ± 5.1%

# From patent publication US10500217B2 (LESLIE RAY MATTHEWS, M.D., LLC, priority 2018, dated 2019)
